According to the OPERA property sets (Mansouri et al. 2018):

SMILES	logP
CN1C(C(=O)Nc2ccccn2)=C(O)c2ccccc2S1(=O)=O	3.06
O=C1O[C@H]([C@@H](O)CO)C(O)=C1O	-1.85
N#CC(C#N)Cc1ccc(O)cc1	3.08
CCc1cc(CC(C#N)C#N)cc(CC)c1O	4.12
CCCCCCCCCNCc1ccc(C)cc1	5.7
CCN(CC)CCOC(=O)c1ccc(N)cc1	2.14
N[C@@H](Cc1ccccc1)C(=O)O (racemic)	-1.38
CCCCNc1ccc(C(=O)OCCN(C)C)cc1	3.51
COc1ccccc1OCCNCC(O)COc1cccc2[nH]c3ccccc3c12 (stereo not given)	4.19
CCCc1c2c(c(O)c3c(=O)cc(C(=O)O)oc13)CCCC2	5
Cc1cnc(NC(=O)C2=C(O)c3ccccc3S(=O)(=O)N2C)s1	3.43
COc1ccc(Cc2nccc3cc(OC)c(OC)cc23)cc1OC	2.95
CC(C)(C)S(=O)(=O)CC(Cc1ccccc1)C(=O)NC(Cc1cnc[nH]1)C(=O)NC(CC1CCCCC1)C(O)C(O)C1CC1 (stereo not given)	2.75
COS(=O)c1ccc(O)cc1 (stereo not given)	0.58
CC(C)(C)S(=O)(=O)CC(Cc1cccc2ccccc12)C(=O)NC(Cc1cnc[nH]1)C(=O)NC(CC1CCCCC1)C(O)C(O)C1CC1 (stereo not given)	3.15
